B1: UnaG (CΔ0)-NLuc (NΔ1) fusion protein: Fusion of UnaG (CΔ0) and NLuc (NΔ1) at the KpnI site, linker GT; amino acid sequence SEQ ID NO: 12 (protein)
chain: GGSGMVEKFVGTWKIADSHNFGEYLKAIGAPKELSDGGDATTPTLYISQKDGDKMTVKIENGPPTFLDTQVKFKLGEEFDEFPSDRRKGVKSVVNLVGEKYVQKWDGKETTYVREIKDGKLVVTLTMGDVVAVRSYRRATEGTVFTLEDFVGDWRQTAGYNLDQVLEQGGVSSLFQNLGVSVTPIQRIVLSGENGLKIDIHVIIPYEGLSGDQMGQIEKIFKVVYPVDDHHFKVILHYGTLVIDGVTPNMIDYFGRPYEGIAVFDGKKITVTGTLWNGNKIIDERLINPDGSLLFRVTINGVTGWRLCERILA
modifications: UnaG(C 0)-NLuc(N 1)

What was measured:
[1] = molecular target: UnaG protein (UniProtKB/Swiss-Prot: P0DM59.1, GenBank: AB763906.1); conditions: binding ability to indirect bilirubin; Kumagai et al., Cell 2013, 153, 1602-1611; read-out: dissociation constant; cited from earlier work
[2] = Room-temperature storage of lyophilized samples, bilirubin affinity re-measured; type: physicochemical; conditions: lyophilized sample stored at room temperature; FIG. 5
Protocol: 500 μL of the purified UnaG (CΔ0)-NLuc (NΔ1) fusion protein was added to a 15-mL Falcon tube and frozen with liquid nitrogen. Thereafter, a powder of the protein solution was obtained by a lyophilizer. The powder was stored at room temperature.
After the preparation of the lyophilized samples, in order to investigate how long the activity is maintained, the lyophilized samples that had been […] were stored at room temperature every few days, and the affinity for bilirubin was measured according to the method described in the above item 7.

Molecule | Kd [1] | activity (affinity for bilirubin) after storage [2]
C=CC1=C(C)/C(=C/c2[nH]c(Cc3[nH]c(/C=C4\NC(=O)C(C)=C4C=C)c(C)c3CCC(=O)O)c(CCC(=O)O)c2C)NC1=O [bilirubin] | 0.098 nM | –
B1 | – | activity was maintained
